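Step 1: Grow cells in 96-well plates. Step 2: Expose to compound for 48 hours at 5 concentrations. Step 3: Interpolate endpoints linearly; if unreached, use highest concentration. GI50: concentration for 50% inhibition of growth. TGI: total growth inhibition.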
Legend:
Assay in all cases: DTP human tumour cell line panel, 48 h
CCRF-CEM leukemia = tested on: CCRF-CEM leukemia
M14 melanoma = tested on: M14 melanoma
HT29 colon = tested on: HT29 colon
HOP-62 NSCLC = tested on: HOP-62 NSCLC
SR leukemia = tested on: SR leukemia
NCI-H23 lung = tested on: NCI-H23 lung
OVCAR-5 ovarian = tested on: OVCAR-5 ovarian
HCT-116 colon = tested on: HCT-116 colon
MDA-N = tested on: MDA-N
DU-145 prostate = tested on: DU-145 prostate

For `CCCCOP1(=O)C=C(C)C(=C(Cl)Cl)C(C)=C1` (centres undefined), the TGI (CCRF-CEM leukemia) was over 41.4 µM, the TGI (M14 melanoma) was 54.8 µM and the TGI (HT29 colon) was 29.9 µM. For the same compound, the TGI (HOP-62 NSCLC) was 32.7 µM, the TGI (SR leukemia) was 29.9 µM and the TGI (NCI-H23 lung) was 34.7 µM. It also gave a TGI (OVCAR-5 ovarian) of over 100 µM and a TGI (HCT-116 colon) of 6.29 µM.
For `COC(=O)n1c(=O)n(-c2ccccc2)c(=O)n1C(=O)OC`, the TGI (CCRF-CEM leukemia) was over 100 µM, the TGI (M14 melanoma) was over 100 µM and the TGI (HT29 colon) was over 100 µM. For the same compound, the TGI (MDA-N) was over 100 µM, the TGI (SR leukemia) was over 100 µM and the TGI (DU-145 prostate) was over 100 µM. For the same compound, the TGI (NCI-H23 lung) was over 100 µM, the TGI (OVCAR-5 ovarian) was over 100 µM and the TGI (HCT-116 colon) was over 100 µM.
For `c1ccc2c(c1)CCc1cc3cc4c(nc3nc1-2)-c1ccccc1CC4`, the TGI (CCRF-CEM leukemia) was over 100 µM, the TGI (M14 melanoma) was over 100 µM and the TGI (HOP-62 NSCLC) was over 100 µM. For the same compound, the TGI (SR leukemia) was over 100 µM, the TGI (NCI-H23 lung) was over 100 µM and the TGI (HCT-116 colon) was over 100 µM.
`Cc1ccc(N2CCc3c(C)c(C#N)c4nc5ccccc5n4c32)cc1` gave a TGI (CCRF-CEM leukemia) of over 100 µM, a TGI (HT29 colon) of over 100 µM and a TGI (HOP-62 NSCLC) of over 100 µM. It also gave a TGI (SR leukemia) of over 100 µM, a TGI (DU-145 prostate) of over 100 µM and a TGI (NCI-H23 lung) of over 100 µM. The TGI (OVCAR-5 ovarian) was over 100 µM and the TGI (HCT-116 colon) was over 100 µM.
In the case of `COC(=O)/C=C1\CCC(C)(C(=O)NS(=O)(=O)c2ccc(C)cc2)C1(C)C` (centres undefined), the TGI (CCRF-CEM leukemia) is reported as over 100 µM, the TGI (M14 melanoma) is reported as over 100 µM and the TGI (HOP-62 NSCLC) is reported as over 100 µM. For the same compound, the TGI (MDA-N) was over 100 µM, the TGI (DU-145 prostate) was over 100 µM and the TGI (NCI-H23 lung) was over 100 µM. The TGI (OVCAR-5 ovarian) was over 100 µM and the TGI (HCT-116 colon) was over 100 µM.
`C1CCC(OC2CSC2)OC1` (centres undefined) was tested, and the TGI (CCRF-CEM leukemia) was over 100 µM, the TGI (M14 melanoma) was over 100 µM and the TGI (HT29 colon) was over 100 µM. It also gave a TGI (MDA-N) of over 100 µM, a TGI (SR leukemia) of over 100 µM and a TGI (DU-145 prostate) of over 100 µM. The TGI (NCI-H23 lung) was over 100 µM and the TGI (HCT-116 colon) was over 100 µM.
Work on `COc1cccc(/C=N/[N-]C(N)=O)c1[O-].[Ni+2].[OH3+].c1cnc2c(c1)ccc1cccnc12` yielded a TGI (CCRF-CEM leukemia) of over 100 µM, a TGI (M14 melanoma) of over 100 µM and a TGI (HT29 colon) of over 100 µM. It also gave a TGI (HOP-62 NSCLC) of over 100 µM, a TGI (SR leukemia) of over 100 µM and a TGI (NCI-H23 lung) of over 100 µM. For the same compound, the TGI (OVCAR-5 ovarian) was over 100 µM and the TGI (HCT-116 colon) was over 100 µM.
`C=C(C)C(=O)[C@@]12C(=O)[C@@H](C)CC[C@H]1[C@H](C)C[C@@H]2C=C(C)C` was tested, and the TGI (CCRF-CEM leukemia) was over 100 µM, the TGI (M14 melanoma) was over 100 µM and the TGI (HT29 colon) was 34.8 µM. For the same compound, the TGI (HOP-62 NSCLC) was over 100 µM, the TGI (MDA-N) was 59.1 µM and the TGI (DU-145 prostate) was over 100 µM. It also gave a TGI (NCI-H23 lung) of 36.3 µM, a TGI (OVCAR-5 ovarian) of 55.2 µM and a TGI (HCT-116 colon) of 42.6 µM.
With `C=C1C(=O)OCC2C(C(=O)O)=CC3C(C)C(C)=CC123` (centres undefined) the TGI (CCRF-CEM leukemia) was 42 µM, the TGI (HT29 colon) was 44.4 µM and the TGI (HOP-62 NSCLC) was 31.4 µM. The TGI (NCI-H23 lung) was 25.7 µM, the TGI (OVCAR-5 ovarian) was 66.3 µM and the TGI (HCT-116 colon) was 35.5 µM.
In the case of `CC(CO)C1C[C@H](O)[C@@]2(C)CC(=O)C=C(CO)[C@@H]2C1` (some centres undefined), the TGI (M14 melanoma) is reported as over 100 µM, the TGI (HT29 colon) is reported as over 100 µM and the TGI (HOP-62 NSCLC) is reported as over 100 µM. For the same compound, the TGI (MDA-N) was over 100 µM, the TGI (DU-145 prostate) was over 100 µM and the TGI (NCI-H23 lung) was over 100 µM. It also gave a TGI (OVCAR-5 ovarian) of over 100 µM and a TGI (HCT-116 colon) of over 100 µM.
Compound `N#Cc1c(N2CCCC2)ncn(Cc2ccccc2)c1=O` has a TGI (CCRF-CEM leukemia) of over 100 µM, a TGI (M14 melanoma) of over 100 µM and a TGI (HT29 colon) of over 100 µM. For the same compound, the TGI (HOP-62 NSCLC) was over 100 µM, the TGI (MDA-N) was over 100 µM and the TGI (SR leukemia) was over 100 µM. For the same compound, the TGI (DU-145 prostate) was over 100 µM, the TGI (OVCAR-5 ovarian) was over 100 µM and the TGI (HCT-116 colon) was over 100 µM.
Work on `O=C1/C(=C/c2ccccc2[N+](=O)[O-])N=C(c2ccccc2)N1C1Nc2cc3c(cc2S1)NC(N1C(=O)/C(=C/c2ccccc2[N+](=O)[O-])N=C1c1ccccc1)S3` (centres undefined) yielded a TGI (M14 melanoma) of over 100 µM, a TGI (HT29 colon) of over 100 µM and a TGI (HOP-62 NSCLC) of over 100 µM. The TGI (MDA-N) was over 100 µM, the TGI (SR leukemia) was 90.3 µM and the TGI (DU-145 prostate) was over 100 µM. For the same compound, the TGI (NCI-H23 lung) was over 100 µM, the TGI (OVCAR-5 ovarian) was over 100 µM and the TGI (HCT-116 colon) was over 100 µM.
Work on `O=[Se](=O)c1ccccc1.O=[Se](=O)c1ccccc1.[Cu]` yielded a GI50 (CCRF-CEM leukemia) of 7.98 µM, a TGI (CCRF-CEM leukemia) of 62.7 µM and a GI50 (HT29 colon) of 17.2 µM. The TGI (HT29 colon) was 39.2 µM, the GI50 (HOP-62 NSCLC) was 26 µM and the TGI (HOP-62 NSCLC) was 43.4 µM. It also gave a GI50 (NCI-H23 lung) of 13.5 µM, a TGI (NCI-H23 lung) of 30.1 µM and a GI50 (OVCAR-5 ovarian) of 23 µM. For the same compound, the TGI (OVCAR-5 ovarian) was 37.9 µM, the GI50 (HCT-116 colon) was 17.4 µM and the TGI (HCT-116 colon) was 33 µM.
In the case of `NCCNc1cccc2ccccc12`, the TGI (M14 melanoma) is reported as over 100 µM, the TGI (HT29 colon) is reported as over 100 µM and the TGI (HOP-62 NSCLC) is reported as over 100 µM. For the same compound, the TGI (SR leukemia) was over 100 µM, the TGI (NCI-H23 lung) was over 100 µM and the TGI (OVCAR-5 ovarian) was over 100 µM. It also gave a TGI (HCT-116 colon) of over 100 µM.
With `CSC1=C(C#N)C(=O)N(c2ccc(C)cc2)C(=S)C1C#N` (centres undefined) the TGI (CCRF-CEM leukemia) was over 100 µM, the TGI (M14 melanoma) was over 100 µM and the TGI (HT29 colon) was over 100 µM. It also gave a TGI (HOP-62 NSCLC) of over 100 µM, a TGI (MDA-N) of over 100 µM and a TGI (OVCAR-5 ovarian) of over 100 µM. The TGI (HCT-116 colon) was over 100 µM.
With `CCOC(=O)CNC(=O)C(C)NC(=O)C(NC(=O)CC(c1ncc[nH]1)c1ncc[nH]1)C(C)CC` (centres undefined) the TGI (CCRF-CEM leukemia) was over 100 µM, the TGI (M14 melanoma) was over 100 µM and the TGI (MDA-N) was over 100 µM. It also gave a TGI (SR leukemia) of over 100 µM, a TGI (DU-145 prostate) of over 100 µM and a TGI (NCI-H23 lung) of over 100 µM. For the same compound, the TGI (OVCAR-5 ovarian) was over 100 µM and the TGI (HCT-116 colon) was over 100 µM.
With `COC(=O)/C=C/c1cc(O)c2c(c1)[C@H](C(=O)OC)[C@@H](c1ccc(O)c(O)c1)O2` the TGI (CCRF-CEM leukemia) was 5.18 µM, the TGI (M14 melanoma) was over 45.2 µM and the TGI (HT29 colon) was over 37.9 µM. It also gave a TGI (HOP-62 NSCLC) of over 58.7 µM, a TGI (NCI-H23 lung) of over 100 µM and a TGI (OVCAR-5 ovarian) of over 100 µM. The TGI (HCT-116 colon) was over 72 µM.
`CC(=O)O[C@]12CCCC1C1(O)C(O)CCCC12` (some centres undefined) gave a TGI (CCRF-CEM leukemia) of over 100 µM, a TGI (M14 melanoma) of over 100 µM and a TGI (HT29 colon) of over 100 µM. The TGI (HOP-62 NSCLC) was over 100 µM, the TGI (SR leukemia) was over 100 µM and the TGI (NCI-H23 lung) was over 100 µM. The TGI (HCT-116 colon) was over 100 µM.
With `COC(=O)c1cc(C#N)[nH]c1-c1ccc(C)s1` the TGI (CCRF-CEM leukemia) was over 100 µM, the TGI (M14 melanoma) was over 100 µM and the TGI (HOP-62 NSCLC) was over 100 µM. The TGI (MDA-N) was over 100 µM, the TGI (SR leukemia) was over 100 µM and the TGI (DU-145 prostate) was over 100 µM. The TGI (NCI-H23 lung) was over 100 µM, the TGI (OVCAR-5 ovarian) was over 100 µM and the TGI (HCT-116 colon) was over 100 µM.
Work on `O=C1C=C(Br)c2c(Br)sc(Br)c21` yielded a TGI (M14 melanoma) of 15 µM, a TGI (HT29 colon) of 44.5 µM and a TGI (HOP-62 NSCLC) of over 79.9 µM. For the same compound, the TGI (MDA-N) was over 52 µM, the TGI (SR leukemia) was over 100 µM and the TGI (DU-145 prostate) was 29 µM. For the same compound, the TGI (NCI-H23 lung) was 25.6 µM, the TGI (OVCAR-5 ovarian) was 41.3 µM and the TGI (HCT-116 colon) was 30.4 µM.
`COc1cc(/C=C2\N=C(c3ccccc3)N(c3nc4c(OC)ccc(OC)c4s3)C2=O)cc(OC)c1OC` showed a TGI (CCRF-CEM leukemia) of over 100 µM, a TGI (M14 melanoma) of over 100 µM and a TGI (HT29 colon) of over 100 µM. It also gave a TGI (HOP-62 NSCLC) of over 100 µM, a TGI (MDA-N) of over 100 µM and a TGI (DU-145 prostate) of over 100 µM. It also gave a TGI (NCI-H23 lung) of over 100 µM, a TGI (OVCAR-5 ovarian) of over 100 µM and a TGI (HCT-116 colon) of over 100 µM.
`O=C(c1ccccc1)c1ccc2nc(-c3c(Cl)c(Cl)c(Cl)c(Cl)c3C(=O)N/N=C/c3ccccc3)[nH]c2c1` showed a TGI (CCRF-CEM leukemia) of over 100 µM, a TGI (M14 melanoma) of over 100 µM and a TGI (HT29 colon) of over 100 µM. For the same compound, the TGI (HOP-62 NSCLC) was 99.7 µM, the TGI (MDA-N) was 93.7 µM and the TGI (DU-145 prostate) was over 100 µM. For the same compound, the TGI (NCI-H23 lung) was 80.9 µM, the TGI (OVCAR-5 ovarian) was over 100 µM and the TGI (HCT-116 colon) was over 100 µM.
In the case of `CCCCc1ccc(Nc2ncc3[nH]cnc3n2)cc1`, the TGI (CCRF-CEM leukemia) is reported as over 100 µM, the TGI (M14 melanoma) is reported as 38.9 µM and the TGI (HT29 colon) is reported as 44.8 µM. The TGI (HOP-62 NSCLC) was 37.2 µM, the TGI (MDA-N) was over 100 µM and the TGI (DU-145 prostate) was 30.6 µM. For the same compound, the TGI (NCI-H23 lung) was 35.4 µM, the TGI (OVCAR-5 ovarian) was over 100 µM and the TGI (HCT-116 colon) was 34.5 µM.
